# According to patent publication US20230234928A1, “Novel Compounds for Treating Fibrosis and Inflammatory Conditions” (MAKScientific, LLC, priority 2020, published 2023):
# Where “and” joins values, the source holds several entries; their conditions need not be identical. Equal values may be shown once.
# How the values were obtained:
# C57BL/6 mice = experiment: diabetic (STZ) high-fat diet mouse NASH model; format: in vivo; settings: 10 mg/kg PO daily; for fibrosis scores: vs control group
# Procedure: Timed pregnant female C57BL/6 mice (Jackson Laboratories, USA) were obtained and housed with a cardboard hut for birthing and nursing of pups (enrichment), in an AAALAC-accredited vivarium, prefilled with corn cob bedding on a 12-hour light-dark at 68-74° F. and 30-70% humidity. Pregnant female mice were fed water and a standard rodent diet (Teklad irradiated 2918) ad libitum consisting of 18% protein, 5% fat, and 5% fiber. Three days post birth, pups from all litters received streptozotocin (STZ), i.p. at 200 mg/kg, to induce a mild to moderate hyperglycemia and insulin insufficiency. Random blood glucose was measured at weaning when pups were 25 days old. At weaning, mice were fed water and a standard rodent diet (Teklad irradiated 2918) ad libitum consisting of 18% protein, 5% fat, and 5% fiber. At 4 weeks of age, male mice were randomized into 7 study groups based on a random blood glucose (RBG) between 200-750 mg/dl and were switched from the standard rodent diet to the modified high fat diet (HFD), Research Diets D09100310 for the remainder of the study. Following 3 weeks of HFD feeding, test article and vehicle control dose administration was initiated and continued for up to 9 weeks. Body weights were measured at least twice a week from dose initiation through study end/termination. HFD was changed weekly with the old food being discarded. Animals had random blood glucose measured every 3 weeks and at termination. Clinical observations were performed daily from receipt/birth and continued through study end. Compound 1 and rimonabant were stored at −20° C. prior to drug preparation. Following three weeks of modified diet feeding, dose initiation of the compounds began and continued for up to 9 weeks. Test compounds were dissolved in 2% dimethyl sulfoxide, followed by 8% Tween-80 and 8% propylene glycol. Saline was added slowly to this solution with sonication prior to administration. Animals were dosed at 10 mg/kg via oral gavage (PO), daily, for up to 9 weeks.
# Livers were scored for both NAS and NASH parameters. […] Fibrosis was observed across all study groups. […] Lobular inflammation was present across all NASH study groups thus indicating inflammatory cell infiltration. Following 9 weeks of treatment with Compound 1, lobular inflammation was reduced.
# CB1 cannabinoid receptor = molecular target: T1, CB1 cannabinoid receptor (Homo sapiens, UniProt P21554); experiment: CB1 competition-equilibrium binding using [3H]CP-55,940; settings: competition binding with [3H]CP-55,940; FIG. 1: hCB1-HEK292 cells; read-out: CB1 cannabinoid receptor binding affinity (Ki)
# T1 construct: expressed in transfected cells; host or cells: HEK293
# T1 sequence (P21554 whole entry): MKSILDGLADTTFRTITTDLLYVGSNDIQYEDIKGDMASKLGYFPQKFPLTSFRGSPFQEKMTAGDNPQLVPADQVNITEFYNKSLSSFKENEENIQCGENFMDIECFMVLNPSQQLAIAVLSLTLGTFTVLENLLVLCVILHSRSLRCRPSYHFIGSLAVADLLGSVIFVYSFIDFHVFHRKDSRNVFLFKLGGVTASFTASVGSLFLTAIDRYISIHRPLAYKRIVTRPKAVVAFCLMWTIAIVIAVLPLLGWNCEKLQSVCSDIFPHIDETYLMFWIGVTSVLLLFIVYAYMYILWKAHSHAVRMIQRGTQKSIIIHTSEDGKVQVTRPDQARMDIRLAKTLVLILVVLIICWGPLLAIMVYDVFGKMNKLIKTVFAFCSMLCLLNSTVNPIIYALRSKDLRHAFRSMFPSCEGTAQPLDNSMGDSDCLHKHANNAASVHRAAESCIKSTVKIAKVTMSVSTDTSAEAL
# Procedure: (§1) HEK293 cells expressing hCB1, hCB2 or mCB2 receptor are used for membrane preparations according to the method described in J Neurochem 1999, 72, (5), 2032-8, herein incorporated by reference in its entirety. The resulting pellet is resuspended in 10 mM Tris-chloride, pH 7.4 with 5 mM MgCl2 and 2 mM EDTA (TME), and stored at −80° C. for no longer than two months. Protein content is assayed by using the Bio-Rad DC protein assay according to the manufacturer's protocol.
# Frozen rat brains (CB1 source) are obtained from Pel-Freeze Biologicals (Rogers, Ak.) and stored at −80° C. until use. […]
# (§2) The compound was tested for its ability to bind to CB1 and CB2 receptors using rat brain or HEK293 cell membranes expressing hCB2 and mCB2 membrane preparations, respectively, as described in J Med Chem 1999, 42, (4), 769-776, J Med Chem 1994, 37, (23), 3867-70 and Life Sci 1995, 56, (23-24), 1957-62 (each herein incorporated by reference in its entirety) via competition-equilibrium binding using [^3H]CP-55,940. The results were analyzed using nonlinear regression to determine the actual IC50 of the ligand (Prizm by GraphPad Software, Inc.) and the Ki values are calculated from the IC50 as described in Biochemical Pharmacology 1973, 22, (23), 3099-3108; herein incorporated by reference in its entirety.
# CB2 cannabinoid receptor = CB2 cannabinoid receptor (UniProt P34972); experiment: CB2 competition-equilibrium binding using [3H]CP-55,940; settings: competition binding with [3H]CP-55,940; read-out: CB2 cannabinoid receptor binding affinity (Ki)
# Procedure: as §1, §2
# CB1 = molecular target: T2, CB1 (Mus musculus, UniProt P47746); experiment: in vivo CB1 antagonism (hypothermia) in male CD1 mice; settings: 10 mg/kg i.p. test compound, 30 mg/kg Δ9-THC, male CD-1 mice, rectal temperature
# T2 construct: tissue Charles River; host or cells: whole animal, male CD-1 mice
# T2 sequence (P47746 whole entry): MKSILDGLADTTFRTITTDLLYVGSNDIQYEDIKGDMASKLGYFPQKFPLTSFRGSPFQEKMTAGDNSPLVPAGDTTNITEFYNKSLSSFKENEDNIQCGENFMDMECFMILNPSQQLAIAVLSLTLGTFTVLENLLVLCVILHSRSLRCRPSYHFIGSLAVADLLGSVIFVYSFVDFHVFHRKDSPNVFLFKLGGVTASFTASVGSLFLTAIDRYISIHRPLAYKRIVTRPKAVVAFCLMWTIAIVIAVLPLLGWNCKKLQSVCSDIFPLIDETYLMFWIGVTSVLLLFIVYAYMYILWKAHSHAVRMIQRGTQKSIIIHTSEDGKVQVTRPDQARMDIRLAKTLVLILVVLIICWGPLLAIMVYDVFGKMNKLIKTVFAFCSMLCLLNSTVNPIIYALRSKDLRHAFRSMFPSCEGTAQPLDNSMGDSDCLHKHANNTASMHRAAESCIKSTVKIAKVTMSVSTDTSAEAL
# Procedure: Male CD-1 mice (Charles River, Wilmington, Mass., USA) aged 4-6 weeks weighing between 25-35 gm were chosen for in vivo CB1 antagonism testing. The mice were housed 4 per cage with free access to food and water. The temperature of the vivarium was 25° C. with a non-reversed 12 hrs light/dark cycle (lights on 7 am). Mice were habituated to the vivarium for at least one week before any experiments were performed. All experimental procedures were pre-approved by The Animal Care and Use Committee of Northeastern University, Boston, Mass., USA. The “Principles of Animal Laboratory Care” (National Institute of Health 1996) was followed. The test compound (10 mg/kg) was dissolved in 4% dimethyl sulfoxide, followed by 8% Tween-80 and 8% propylene glycol. Saline was added slowly to this solution with sonication prior to administration. Δ^9-THC was initially dissolved in 2% dimethyl sulfoxide, followed by 4% Tween-80 and 4% propylene glycol. Saline was added slowly to this drug solution with sonication prior to administration. All administrations were i.p. at a volume of 10 ml/kg. […] Core temperature was measured using a rectal probe of a digital laboratory thermometer, RET-3-ISO, type T thermocouple (Physitemp Instruments Inc., Clifton, N.J.). The probe was inserted 2 cm into the rectum for ≈20 to 30 seconds at which time the rectal temperature readings had stabilized.
SMILES,"steatosis (C57BL/6 mice; 9 weeks of treatment, liver)","fibrosis scores (C57BL/6 mice; 9 weeks of treatment, liver)",Ki (CB1 cannabinoid receptor),Ki (CB2 cannabinoid receptor) [nM],antagonism of hypothermic effects induced by the CB1 agonist Δ9-THC (CB1),"lobular inflammation (C57BL/6 mice; 9 weeks of treatment, liver)",inflammation and fibrosis (overall) (C57BL/6 mice; up to 9 weeks),"animal survival (C57BL/6 mice; up to 9 weeks, compared to rimonabant)"
"Cc1c(C(=O)NN2CCCCC2)nn(-c2ccc(Cl)cc2Cl)c1-c1ccc(Cl)cc1 [rimonabant, 5-(4-chlorophenyl)-1-(2,4-dichlorophenyl)-4-methyl-N-(piperidin-1-yl)-1H-pyrazole-3-carboxamide, reference compound]",decreased,statistically significant when compared to the control group,,,,,,
"Cc1c(C(=O)NN2CCS(=O)(=O)CC2)nc(-c2ccc(Cl)cc2Cl)n1-c1ccc(C#CCCC#N)cc1 [Compound 1, 1-(4-(4-cyanobut-1-yn-1-yl)phenyl)-2-(2,4-dichlorophenyl)-N-(1,1-dioxidothiomorpholino)-5-methyl-1H-imidazole-4-carboxamide]",decreased,statistically significant when compared to the control group,1 nM and ~1 nM,> 1000,inability of 10 mg/kg of compound 1 to antagonize the hypothermic effects,reduced,markedly attenuated or delayed the inflammation and fibrosis,increased animal survival as compared to rimonabant
